In article PMC6547681 (Nature Communications, 2019):
Several values for one entry are separate records, joined by “and”; a condition that tells them apart may be missing. Identical values can stand only once.

Experiments:
[1] = biological target: BCL-2 G101V/E152A double mutant (Homo sapiens, UniProt P10415, E152A/G101V); assay: Steady-state competition SPR against immobilised BIMBH3 peptide, BCL-2 G101V/E152A double mutant; format: binding
Experimental: (§1) SPR experiments were performed as previously described. […] The lowest concentrations used in direct binding experiments were 1 nM for BIAcore 4000 and 0.1 nM for BIAcore S200 instruments, concentrations below these were below the sensitivity thresholds for the instruments. […] Direct binding experiments were fitted to a 1:1 binding site kinetic model, fitting on and off rates, in BIAevaluation software. For competition experiments steady-state responses were determined in BIAevaluation software according to the software defaults in affinity evaluation mode averaging responses for 5 sec. […] All affinity measurements were performed in at least two independent experiments using independent protein preparations.

BCL-2 WT = assay: Steady-state competition SPR against immobilised BIMBH3 peptide, BCL-2 WT; format: binding, human; conditions: for Raw data values in Figure 3f (SPR response): S55746 concentration 20
Experimental: as §1

Sequence of BCL-2 G101V/E152A double mutant (P10415 with tags, fused parts or gaps G101V/E152A): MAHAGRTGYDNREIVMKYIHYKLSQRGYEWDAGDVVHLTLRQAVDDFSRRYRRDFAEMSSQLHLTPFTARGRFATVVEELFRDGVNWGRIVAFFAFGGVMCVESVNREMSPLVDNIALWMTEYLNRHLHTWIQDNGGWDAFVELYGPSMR

## O=C(c1cc(-c2cc3c(cc2C(=O)N2Cc4ccccc4C[C@H]2CN2CCOCC2)OCO3)n2c1CCCC2)N(c1ccccc1)c1ccc(O)cc1 [S55746]
[1]; S55746 concentration 20, BCL-2 concentration 10 nM, independent experiment 1
  Raw data values in Figure 3h (SPR response): 30.4614
[1]; S55746 concentration 20, BCL-2 concentration 10 nM, independent experiment 2
  Raw data values in Figure 3h (SPR response): 6.021
[1]; S55746 concentration 20, BCL-2 concentration 20 nM, independent experiment 1
  Raw data values in Figure 3h (SPR response): 65.5037
[1]; S55746 concentration 20, BCL-2 concentration 20 nM, independent experiment 2
  Raw data values in Figure 3h (SPR response): 18.8646
[1]; S55746 concentration 20, BCL-2 concentration 30 nM, independent experiment 1
  Raw data values in Figure 3h (SPR response): 76.9824
[1]; S55746 concentration 20, BCL-2 concentration 30 nM, independent experiment 2
  Raw data values in Figure 3h (SPR response): 27.9038
[1]; S55746 concentration 20, BCL-2 concentration 40 nM, independent experiment 1
  Raw data values in Figure 3h (SPR response): 81.6304
[1]; S55746 concentration 20, BCL-2 concentration 40 nM, independent experiment 2
  Raw data values in Figure 3h (SPR response): 34.3045
[1]; S55746 concentration 20, BCL-2 concentration 50 nM, independent experiment 1
  Raw data values in Figure 3h (SPR response): 84.581
[1]; S55746 concentration 20, BCL-2 concentration 50 nM, independent experiment 2
  Raw data values in Figure 3h (SPR response): 38.4913
[1]; S55746 concentration 20, BCL-2 concentration 60 nM, independent experiment 1
  Raw data values in Figure 3h (SPR response): 86.8988
[1]; S55746 concentration 20, BCL-2 concentration 60 nM, independent experiment 2
  Raw data values in Figure 3h (SPR response): 42.4602
[1]; S55746 concentration 20, BCL-2 concentration 70 nM, independent experiment 1
  Raw data values in Figure 3h (SPR response): 87.9145
[1]; S55746 concentration 20, BCL-2 concentration 70 nM, independent experiment 2
  Raw data values in Figure 3h (SPR response): 45.435
[1]; S55746 concentration 20, BCL-2 concentration 80 nM, independent experiment 1
  Raw data values in Figure 3h (SPR response): 88.9424
[1]; S55746 concentration 20, BCL-2 concentration 80 nM, independent experiment 2
  Raw data values in Figure 3h (SPR response): 47.8619
[1]; S55746 concentration 20, BCL-2 concentration 100 nM, independent experiment 1
  Raw data values in Figure 3h (SPR response): 90.7371
[1]; S55746 concentration 20, BCL-2 concentration 100 nM, independent experiment 2
  Raw data values in Figure 3h (SPR response): 52.9424
[1]; S55746 concentration 20, BCL-2 concentration 150 nM, independent experiment 1
  Raw data values in Figure 3h (SPR response): 92.2147
[1]; S55746 concentration 20, BCL-2 concentration 150 nM, independent experiment 2
  Raw data values in Figure 3h (SPR response): 60.437
[1]; S55746 concentration 20, BCL-2 concentration 200 nM, independent experiment 1
  Raw data values in Figure 3h (SPR response): 94.1481
[1]; S55746 concentration 20, BCL-2 concentration 200 nM, independent experiment 2
  Raw data values in Figure 3h (SPR response): 65.8724
[1]; S55746 concentration 40, BCL-2 concentration 10 nM, independent experiment 1
  Raw data values in Figure 3h (SPR response): 10.773
[1]; S55746 concentration 40, BCL-2 concentration 10 nM, independent experiment 2
  Raw data values in Figure 3h (SPR response): 1.948
[1]; S55746 concentration 40, BCL-2 concentration 20 nM, independent experiment 1
  Raw data values in Figure 3h (SPR response): 28.9257
[1]; S55746 concentration 40, BCL-2 concentration 20 nM, independent experiment 2
  Raw data values in Figure 3h (SPR response): 5.643
[1]; S55746 concentration 40, BCL-2 concentration 30 nM, independent experiment 1
  Raw data values in Figure 3h (SPR response): 52.4298
[1]; S55746 concentration 40, BCL-2 concentration 30 nM, independent experiment 2
  Raw data values in Figure 3h (SPR response): 13.0173
[1]; S55746 concentration 40, BCL-2 concentration 40 nM, independent experiment 1
  Raw data values in Figure 3h (SPR response): 71.0654
[1]; S55746 concentration 40, BCL-2 concentration 40 nM, independent experiment 2
  Raw data values in Figure 3h (SPR response): 23.2512
[1]; S55746 concentration 40, BCL-2 concentration 50 nM, independent experiment 1
  Raw data values in Figure 3h (SPR response): 78.1857
[1]; S55746 concentration 40, BCL-2 concentration 50 nM, independent experiment 2
  Raw data values in Figure 3h (SPR response): 30.4785
[1]; S55746 concentration 40, BCL-2 concentration 60 nM, independent experiment 1
  Raw data values in Figure 3h (SPR response): 82.5478
[1]; S55746 concentration 40, BCL-2 concentration 60 nM, independent experiment 2
  Raw data values in Figure 3h (SPR response): 36.3344
[1]; S55746 concentration 40, BCL-2 concentration 70 nM, independent experiment 1
  Raw data values in Figure 3h (SPR response): 84.8279
[1]; S55746 concentration 40, BCL-2 concentration 70 nM, independent experiment 2
  Raw data values in Figure 3h (SPR response): 40.4837
[1]; S55746 concentration 40, BCL-2 concentration 80 nM, independent experiment 1
  Raw data values in Figure 3h (SPR response): 86.613
[1]; S55746 concentration 40, BCL-2 concentration 80 nM, independent experiment 2
  Raw data values in Figure 3h (SPR response): 44.3565
[1]; S55746 concentration 40, BCL-2 concentration 100 nM, independent experiment 1
  Raw data values in Figure 3h (SPR response): 88.6534
[1]; S55746 concentration 40, BCL-2 concentration 100 nM, independent experiment 2
  Raw data values in Figure 3h (SPR response): 49.9278
[1]; S55746 concentration 40, BCL-2 concentration 150 nM, independent experiment 1
  Raw data values in Figure 3h (SPR response): 91.2516
[1]; S55746 concentration 40, BCL-2 concentration 150 nM, independent experiment 2
  Raw data values in Figure 3h (SPR response): 58.1685
[1]; S55746 concentration 40, BCL-2 concentration 200 nM, independent experiment 1
  Raw data values in Figure 3h (SPR response): 92.8828
[1]; S55746 concentration 40, BCL-2 concentration 200 nM, independent experiment 2
  Raw data values in Figure 3h (SPR response): 64.0843
[1]; S55746 concentration 60, BCL-2 concentration 10 nM, independent experiment 1
  Raw data values in Figure 3h (SPR response): 8.7572
[1]; S55746 concentration 60, BCL-2 concentration 10 nM, independent experiment 2
  Raw data values in Figure 3h (SPR response): 1.402
[1]; S55746 concentration 60, BCL-2 concentration 20 nM, independent experiment 1
  Raw data values in Figure 3h (SPR response): 17.8604
[1]; S55746 concentration 60, BCL-2 concentration 20 nM, independent experiment 2
  Raw data values in Figure 3h (SPR response): 2.802
[1]; S55746 concentration 60, BCL-2 concentration 30 nM, independent experiment 1
  Raw data values in Figure 3h (SPR response): 29.7852
[1]; S55746 concentration 60, BCL-2 concentration 30 nM, independent experiment 2
  Raw data values in Figure 3h (SPR response): 5.592
[1]; S55746 concentration 60, BCL-2 concentration 40 nM, independent experiment 1
  Raw data values in Figure 3h (SPR response): 46.113
[1]; S55746 concentration 60, BCL-2 concentration 40 nM, independent experiment 2
  Raw data values in Figure 3h (SPR response): 9.958
[1]; S55746 concentration 60, BCL-2 concentration 50 nM, independent experiment 1
  Raw data values in Figure 3h (SPR response): 65.5161
[1]; S55746 concentration 60, BCL-2 concentration 50 nM, independent experiment 2
  Raw data values in Figure 3h (SPR response): 18.5156
[1]; S55746 concentration 60, BCL-2 concentration 60 nM, independent experiment 1
  Raw data values in Figure 3h (SPR response): 78.402
[1]; S55746 concentration 60, BCL-2 concentration 60 nM, independent experiment 2
  Raw data values in Figure 3h (SPR response): 29.1548
[1]; S55746 concentration 60, BCL-2 concentration 70 nM, independent experiment 1
  Raw data values in Figure 3h (SPR response): 82.48
[1]; S55746 concentration 60, BCL-2 concentration 70 nM, independent experiment 2
  Raw data values in Figure 3h (SPR response): 34.7085
[1]; S55746 concentration 60, BCL-2 concentration 80 nM, independent experiment 1
  Raw data values in Figure 3h (SPR response): 84.2763
[1]; S55746 concentration 60, BCL-2 concentration 80 nM, independent experiment 2
  Raw data values in Figure 3h (SPR response): 38.0757
[1]; S55746 concentration 60, BCL-2 concentration 100 nM, independent experiment 1
  Raw data values in Figure 3h (SPR response): 87.9314
[1]; S55746 concentration 60, BCL-2 concentration 100 nM, independent experiment 2
  Raw data values in Figure 3h (SPR response): 45.7651
[1]; S55746 concentration 60, BCL-2 concentration 150 nM, independent experiment 1
  Raw data values in Figure 3h (SPR response): 91.7815
[1]; S55746 concentration 60, BCL-2 concentration 150 nM, independent experiment 2
  Raw data values in Figure 3h (SPR response): 56.7196
[1]; S55746 concentration 60, BCL-2 concentration 200 nM, independent experiment 1
  Raw data values in Figure 3h (SPR response): 93.0262
[1]; S55746 concentration 60, BCL-2 concentration 200 nM, independent experiment 2
  Raw data values in Figure 3h (SPR response): 63.1726
BCL-2 WT; BCL-2 WT
  S55746 binding weaker than venetoclax: > 10 fold and 10 fold
BCL-2 WT; BCL-2 concentration 1 nM, independent experiment 2
  Raw data values in Figure 3f (SPR response): 2.733
BCL-2 WT; BCL-2 concentration 3 nM, independent experiment 2
  Raw data values in Figure 3f (SPR response): 5.054
BCL-2 WT; BCL-2 concentration 4 nM, independent experiment 2
  Raw data values in Figure 3f (SPR response): 7.385
BCL-2 WT; BCL-2 concentration 6 nM, independent experiment 2
  Raw data values in Figure 3f (SPR response): 10.4479
BCL-2 WT; BCL-2 concentration 8 nM, independent experiment 2
  Raw data values in Figure 3f (SPR response): 13.83
BCL-2 WT; BCL-2 concentration 9 nM, independent experiment 2
  Raw data values in Figure 3f (SPR response): 18.2167
BCL-2 WT; BCL-2 concentration 10 nM, independent experiment 1
  Raw data values in Figure 3f (SPR response): 14.9942
BCL-2 WT; BCL-2 concentration 10 nM, independent experiment 3
  Raw data values in Figure 3f (SPR response): 5.545
BCL-2 WT; BCL-2 concentration 11 nM, independent experiment 2
  Raw data values in Figure 3f (SPR response): 22.9055
BCL-2 WT; BCL-2 concentration 12 nM, independent experiment 2
  Raw data values in Figure 3f (SPR response): 29.6258
BCL-2 WT; BCL-2 concentration 16 nM, independent experiment 2
  Raw data values in Figure 3f (SPR response): 52.2757
BCL-2 WT; BCL-2 concentration 20 nM, independent experiment 1
  Raw data values in Figure 3f (SPR response): 62.0337
BCL-2 WT; BCL-2 concentration 20 nM, independent experiment 3
  Raw data values in Figure 3f (SPR response): 30.5673
BCL-2 WT; BCL-2 concentration 24 nM, independent experiment 2
  Raw data values in Figure 3f (SPR response): 194.711
BCL-2 WT; BCL-2 concentration 30 nM, independent experiment 1
  Raw data values in Figure 3f (SPR response): 78.5463
BCL-2 WT; BCL-2 concentration 30 nM, independent experiment 3
  Raw data values in Figure 3f (SPR response): 46.9544
BCL-2 WT; BCL-2 concentration 40 nM, independent experiment 1
  Raw data values in Figure 3f (SPR response): 84.3215
